Source: patent US7601687B2, “Mechanism for identifying drugs for the treatment of type II diabetes” (BioCrine AB, priority 2006, dated 2009)

Tests used:
[1] = tested on: rat βGK promoter; test: On-line monitoring of βGK promoter-driven GFP expression (prβGK.GFP) in transfected HIT-T15 cells, islet cells and islets; assay type: cell-based, hamster (HIT-T15), rat (islet cells); settings: for effect of inhibitor on insulin-stimulated βGK transcription / promoter activity: 5 mU/ml insulin 5 min, 150 nM BIM, 20 μM PD98059, 10 μM PD169316, 100 μM HNMPA-(AM)3, 400 nM AC, FIG. 5; for effect of inhibitor on insulin-stimulated βGK transcription / promoter activity / effect of inhibitor on insulin-stimulated βGK promoter activity (GFP) in the same co-transfected cell: 25 μM LY294002, 10 nM rapamycin; for effect of inhibitor on insulin-stimulated βGK promoter activity (GFP) in the same co-transfected cell: 5 mU/ml insulin, 400 nM AC, 100 μM HNMPA-(AM)3; for βGK promoter-driven GFP expression upon secretagogue stimulation: 50 mM KCl or 1 μM glibenclamide for 5 min at substimulatory glucose
From the text: Construction of prIns1.GFP has been described earlier (Leibiger et al., 1998a). Vector prIns1.DsRed was generated by exchanging the EGFP-expression cassette versus the DsRed-expression cassette obtained from pDsRed1-1 (Clontech). Plasmid prβGK.GFP (i.e. prβGK-278.GFP) was generated by exchanging the CAT-SV40pA-expression cassette of prβGK-278.CAT (Leibiger et al., 1994a) versus the EGFP-bGHpA-expression cassette obtained from pRcCMVI.GFP (Moede et al., 1999). […] All vector constructions were verified by DNA sequence analysis. […] Expression constructs pCMV5.PKBα, pCMV5.PKBαΔ308/437, pCMV5.PDK1 and pCMV5.PDK1-antisense were kindly provided by Drs. P. Cohen and D. R. Alessi (MRC Phosphorylation Unit, University of Dundee, UK).
HIT cells were reported to show glucose responsiveness at subphysiological concentrations between 0.1 and 2 mM (Sharma et al., 1995). HIT cells were grown in RPMI 1640 medium supplemented with 100 units/ml penicillin, 100 μg/ml streptomycin, 2 mM glutamine and 10% fetal calf serum at 5% CO2 and 37° C. Pancreatic islets were isolated from normally fed male Wistar rats and from mice by collagenase digestion. Isolated islets were incubated overnight at 5% CO2 and 37° C. in RPMI 1640 medium, supplemented as described above. Transfection of HIT-T15 and islet cells was performed overnight by the lipofectamine technique in RPMI 1640 medium, without serum and antibiotics. For on-line monitoring, cells were grown and transfected on 24-mm glass coverslips. Following transfection, HIT cells were cultured for 12-18 h in RPMI 1640 medium containing 0.1 mM glucose, 10% fetal calf serum and supplemented as above. Before stimulation, islets and islet cells were incubated for 2 h in RPMI 1640 medium, supplemented as above but containing 3 mM glucose. All expression constructs were prepared using the Qiagen Plasmid Maxi Kit (Qiagen), except those used to produce the adenoviruses which where purified by ultracentrifugation via a CsCI-gradient (as described in Sambrook et al, 1989).
Islets were transduced with Ad.rβGK.GFP or Ad.CMV.GFP by incubating 50 islets with 1 ml virus-containing medium for 90 min at 37° C. and 5% CO2. Following transduction, islets were washed 3 times with PBS and cultured further in RPMI 1640 medium. Islets were stimulated 40-72 h after transduction, as described below and analyzed by laser-scanning confocal microscopy.
(§1) All experiments were performed in RPMI 1640 medium, supplemented as above. Protein kinase inhibitors, antibodies or nifedipine were added to the culture medium 30 min prior to stimulation and were kept in the medium throughout stimulation. After stimulation islets, islet cells and HIT cells were cultured further at substimulatory glucose concentrations (0.1 mM for HIT cells and 3 mM for islets and islet cells). For RNA-analysis, islets and cells were harvested 60 min after start of stimulation, if not indicated otherwise. For analysis of protein kinase activities or tyrosine phosphorylation, cells were harvested immediately following stimulation.
(§2) Detection of fluorescence by digital imaging fluorescence microscopy was performed as described previously (Leibiger et al., 1998a; Leibiger et al., 1998b). Briefly, transfected cells were grown on 24-mm glass coverslips. After stimulation the coverslips were placed into a perifusion chamber which was mounted on an inverted microscope (Zeiss Axiovert 135TV). Temperature was kept at 37° C. and the cells were perfused with RPMI 1640 medium. The objective lens used was a Zeiss-Fluar ×40/1.30 oil Imm Korr. Fluorescence imaging was performed with a cooled charged-coupled device camera (CH250 with KAF 1400, Photometrics, Tucson, Ariz.) connected to an imaging system (Inovision) with fluorescence excitation from a SPEX fluorolog-2 CM1T11I spectrofluorometer (Spex Industries).

[2] = tested on: rat insulin-I gene promoter; test: On-line monitoring of insulin promoter-driven DsRed/GFP expression (prIns1.DsRed) in transfected HIT-T15 cells and islet cells; assay type: cell-based, hamster (HIT-T15), rat (islet cells)
From the text: Construction of prIns1.GFP has been described earlier (Leibiger et al., 1998a). Vector prIns1.DsRed was generated by exchanging the EGFP-expression cassette versus the DsRed-expression cassette obtained from pDsRed1-1 (Clontech). Plasmid prβGK.GFP (i.e. prβGK-278.GFP) was generated by exchanging the CAT-SV40pA-expression cassette of prβGK-278.CAT (Leibiger et al., 1994a) versus the EGFP-bGHpA-expression cassette obtained from pRcCMVI.GFP (Moede et al., 1999). […] All vector constructions were verified by DNA sequence analysis. Constructs for expression of the human Insulin Receptor A and B types, pCMVHIR(A) and pCMVHIR(B) and the control plasmid pCMVstop were kindly provided by Dr. A. Ullrich (Max-Planck-Institute for Biochemistry, Martinsried, Germany). Expression constructs pCMV5.PKBα, pCMV5.PKBαΔ308/437, pCMV5.PDK1 and pCMV5.PDK1-antisense were kindly provided by Drs. P. Cohen and D. R. Alessi (MRC Phosphorylation Unit, University of Dundee, UK).
(§3) Insulin-producing HIT-T15 cells were obtained from ATCC. HIT cells were reported to show glucose responsiveness at subphysiological concentrations between 0.1 and 2 mM (Sharma et al., 1995). HIT cells were grown in RPMI 1640 medium supplemented with 100 units/ml penicillin, 100 μg/ml streptomycin, 2 mM glutamine and 10% fetal calf serum at 5% CO2 and 37° C. Pancreatic islets were isolated from normally fed male Wistar rats and from mice by collagenase digestion. Isolated islets were incubated overnight at 5% CO2 and 37° C. in RPMI 1640 medium, supplemented as described above. Transfection of HIT-T15 and islet cells was performed overnight by the lipofectamine technique in RPMI 1640 medium, without serum and antibiotics. For on-line monitoring, cells were grown and transfected on 24-mm glass coverslips. Following transfection, HIT cells were cultured for 12-18 h in RPMI 1640 medium containing 0.1 mM glucose, 10% fetal calf serum and supplemented as above. Before stimulation, islets and islet cells were incubated for 2 h in RPMI 1640 medium, supplemented as above but containing 3 mM glucose. All expression constructs were prepared using the Qiagen Plasmid Maxi Kit (Qiagen), except those used to produce the adenoviruses which where purified by ultracentrifugation via a CsCI-gradient (as described in Sambrook et al, 1989).
as §1
as §2, with “Industries). The following filter-settings were used: for GFPs65T: excitation at 485 nm, a 505 nm dicroic mirror and an emission band-pass filter of 500-530 nm; for DsRed: excitation at 558 nm, a 565 nm dicroic mirror and a 580 nm long-pass filter for emission […]” for “Industries).”

[3] = tested on: βGK mRNA; test: βGK mRNA steady-state levels (comparative RT-PCR) in cultured pancreatic islets / insulin-producing cells; assay type: cell-based, rat; settings: 50 mM KCl or 1 μM glibenclamide for 5 min at substimulatory glucose
Experimental: as §3, §1
RNA Analysis Levels of βGK mRNA were analyzed by RNase-protection assays and comparative RT-PCR. […] Quantification of the protected complexes was performed by phosphorimaging. […] Levels of μGK mRNA were analyzed by RT-PCR using primers 5′-[…]-3′(SEQ ID NO: 1) and 5′-[…]-3′(SEQ ID NO: 2) for characterizing μGK mRNA in HIT cells and primers 5′-[…]-3′(SEQ ID NO: 3) and 5′-[…]-3′(SEQ ID NO: 4) for μGK mRNA in rat and mouse pancreatic islets and islet cells. Levels of μ-actin mRNA were analyzed by RT-PCR using primers 5′-[…]-3′(SEQ ID NO: 5) and 5′-[…]-3′(SEQ ID NO: 6). […] PCR products were separated on a 6% polyacrylamide sequencing gel and analyzed by phosphorimaging. […]

[4] = co-transfected HIT cells, 5 mU insulin/ml (FIG. 9B)
[5] = co-transfected HIT cells, 5 mU insulin/ml (FIG. 9A)
[6] = 2.6 nM IGF-I, insulin-producing cells

Compound: COC[C@H]1OC(=O)c2coc3c2[C@@]1(C)C1=C(C3=O)[C@@H]2CCC(=O)[C@@]2(C)C[C@H]1OC(C)=O [wortmannin]
- concentration necessary to block insulin-stimulated βGK promoter activity [1, 4]: 150 nM
- concentration sufficient to inhibit insulin-stimulated insulin promoter activity [2, 4]: 50 nM

Compound: O=c1cc(N2CCOCC2)oc2c(-c3ccccc3)cccc12 [LY294002]
- effect of inhibitor on insulin-stimulated βGK transcription / promoter activity [1]: not inhibited
- effect of inhibitor on insulin-stimulated βGK promoter activity (GFP) in the same co-transfected cell [1]: no effect
- concentration necessary to completely abolish insulin-stimulated βGK promoter activity [1, 5]: 100 µM
- concentration that blocked insulin-stimulated insulin promoter activity [2, 5]: 25 µM

Compound: [Cl-].[K+] [KCI, KCl]
- βGK mRNA steady state levels upon secretagogue stimulation [3]: increase
- βGK promoter-driven GFP expression upon secretagogue stimulation [1]: elevation

Compound: IGF-I
- βGK promoter-driven reporter gene expression upon IGF-I stimulation [1, 6]: did not activate
- insulin promoter-driven reporter gene expression upon IGF-I stimulation [2, 6]: did not activate

Compound: CO[C@H]1C[C@@H]2CC[C@@H](C)[C@@](O)(O2)C(=O)C(=O)N2CCCC[C@H]2C(=O)O[C@H]([C@H](C)C[C@@H]2CC[C@@H](O)[C@H](OC)C2)CC(=O)[C@H](C)/C=C(\C)[C@@H](O)[C@@H](OC)C(=O)[C@H](C)C[C@H](C)/C=C/C=C/C=C/1C [rapamycin]
- effect of inhibitor on insulin-stimulated βGK transcription / promoter activity [1]: not inhibited
- effect of inhibitor on insulin-stimulated βGK promoter activity (GFP) in the same co-transfected cell [1]: no effect

Compound: COc1cccc(-c2cc(=O)c3ccccc3o2)c1N [PD98059]
- effect of inhibitor on insulin-stimulated βGK transcription / promoter activity [1]: not sensitive

Compound: COc1ccc(Cl)cc1C(=O)NCCc1ccc(S(=O)(=O)NC(=O)NC2CCCCC2)cc1 [glibenclamide]
- βGK mRNA steady state levels upon secretagogue stimulation [3]: increase
- βGK promoter-driven GFP expression upon secretagogue stimulation [1]: elevation

Compound: CN(C)CCCn1cc(C2=C(c3c[nH]c4ccccc34)C(=O)NC2=O)c2ccccc21 [bisindolylmalemide I]
- effect of inhibitor on insulin-stimulated βGK transcription / promoter activity [1]: not sensitive
